Where two headings read alike, the source gives them in different places.
How the values were obtained:
PKD/PRKD2 = test system: PKD/PRKD2; design: method as in PMID 22387500; conditions: 10 µM inhibitor; cited from earlier work
SKG1 = target: T1, SKG1 (Homo sapiens, UniProt O00141); design: method as in PMID 22387500; conditions: 10 µM inhibitor; cited from earlier work
T1 construct: purchased Reaction Biology Corp

Aurora A = target: T2, Aurora A (Homo sapiens, UniProt O14965); design: method as in PMID 22387500; conditions: 10 µM inhibitor; cited from earlier work
T2 construct: purchased Reaction Biology Corp
T2 sequence (O14965 1-403): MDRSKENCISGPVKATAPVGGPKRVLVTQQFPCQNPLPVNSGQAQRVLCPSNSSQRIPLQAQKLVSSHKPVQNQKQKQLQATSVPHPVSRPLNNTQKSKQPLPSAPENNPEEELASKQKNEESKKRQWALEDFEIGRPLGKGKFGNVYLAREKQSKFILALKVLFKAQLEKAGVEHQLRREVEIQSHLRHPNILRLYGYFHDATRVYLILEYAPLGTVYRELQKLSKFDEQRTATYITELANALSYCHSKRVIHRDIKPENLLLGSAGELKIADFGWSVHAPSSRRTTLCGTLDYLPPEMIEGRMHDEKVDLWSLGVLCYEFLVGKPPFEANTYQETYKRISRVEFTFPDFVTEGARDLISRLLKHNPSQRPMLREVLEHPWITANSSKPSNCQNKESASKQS

LCK = LCK (Homo sapiens, UniProt P06239); design: method as in PMID 22387500; conditions: 10 µM inhibitor; cited from earlier work
KDR/VEGFR2 [1] = target: T3, KDR/VEGFR2 (Homo sapiens, UniProt P35968); design: purchased Reaction Biology Corp; method as in PMID 22387500; conditions: 10 µM inhibitor; cited from earlier work
PIM1 = PIM1 (Homo sapiens, UniProt P11309); conditions: 10 µM inhibitor, 10 µM ATP
Experimental: (§1) For this purpose 61 kinases from different representative subgroups (and CK2α and CK2α’) were tested. Testing was performed with inhibitor concentrations of 10 µM and an ATP concentration of 10 μM. The residual enzyme activity as obtained was set in relation to a control without inhibitor.

FLT4/VEGFR3 = FLT4/VEGFR3 (Homo sapiens, UniProt P35916); conditions: 10 µM inhibitor, 10 µM ATP
Experimental: as §1

PKA = PKA (Homo sapiens, UniProt P17612); conditions: 10 µM inhibitor, 10 µM ATP
Experimental: as §1

KDR/VEGFR2 [2] = target: T3, KDR/VEGFR2; conditions: 10 µM inhibitor, 10 µM ATP
Experimental: as §1

C-Met = C-Met (Homo sapiens, UniProt P08581); conditions: 10 µM inhibitor, 10 µM ATP
Experimental: as §1

T3 sequence (P35968 20-1356): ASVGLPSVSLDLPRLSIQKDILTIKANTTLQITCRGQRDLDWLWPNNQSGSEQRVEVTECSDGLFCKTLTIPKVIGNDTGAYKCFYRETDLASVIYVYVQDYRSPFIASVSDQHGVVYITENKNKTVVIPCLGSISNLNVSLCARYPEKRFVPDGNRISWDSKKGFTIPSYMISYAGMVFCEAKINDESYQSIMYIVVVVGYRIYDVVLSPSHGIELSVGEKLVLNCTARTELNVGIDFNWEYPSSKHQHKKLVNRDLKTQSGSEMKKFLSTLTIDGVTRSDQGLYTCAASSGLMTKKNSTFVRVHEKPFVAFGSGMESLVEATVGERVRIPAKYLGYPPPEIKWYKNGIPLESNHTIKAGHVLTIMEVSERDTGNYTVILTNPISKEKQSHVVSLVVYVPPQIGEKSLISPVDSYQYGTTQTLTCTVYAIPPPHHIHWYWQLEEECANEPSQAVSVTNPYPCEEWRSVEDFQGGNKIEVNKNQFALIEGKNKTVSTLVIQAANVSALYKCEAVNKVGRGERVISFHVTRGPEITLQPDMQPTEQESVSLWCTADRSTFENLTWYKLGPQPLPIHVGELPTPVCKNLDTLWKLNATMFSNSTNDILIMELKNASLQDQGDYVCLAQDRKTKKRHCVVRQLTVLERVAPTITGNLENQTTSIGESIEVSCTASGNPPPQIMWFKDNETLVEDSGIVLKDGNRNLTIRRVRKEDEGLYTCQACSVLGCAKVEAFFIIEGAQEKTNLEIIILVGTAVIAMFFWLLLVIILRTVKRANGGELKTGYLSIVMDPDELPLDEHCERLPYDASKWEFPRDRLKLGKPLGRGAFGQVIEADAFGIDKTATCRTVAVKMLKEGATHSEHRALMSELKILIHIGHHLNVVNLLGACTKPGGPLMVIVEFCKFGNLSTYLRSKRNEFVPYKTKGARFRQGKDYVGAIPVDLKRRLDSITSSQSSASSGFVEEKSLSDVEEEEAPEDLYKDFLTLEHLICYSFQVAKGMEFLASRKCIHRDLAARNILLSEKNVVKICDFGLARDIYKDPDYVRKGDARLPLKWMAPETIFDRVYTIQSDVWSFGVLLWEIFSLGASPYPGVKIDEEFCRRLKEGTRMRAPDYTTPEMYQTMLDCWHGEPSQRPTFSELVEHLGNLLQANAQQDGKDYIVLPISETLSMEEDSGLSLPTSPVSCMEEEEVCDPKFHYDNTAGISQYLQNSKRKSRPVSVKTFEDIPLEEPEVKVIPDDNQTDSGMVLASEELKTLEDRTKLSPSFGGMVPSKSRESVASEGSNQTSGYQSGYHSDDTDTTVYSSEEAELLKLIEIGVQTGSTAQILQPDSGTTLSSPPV
T1 sequence (O00141 whole entry): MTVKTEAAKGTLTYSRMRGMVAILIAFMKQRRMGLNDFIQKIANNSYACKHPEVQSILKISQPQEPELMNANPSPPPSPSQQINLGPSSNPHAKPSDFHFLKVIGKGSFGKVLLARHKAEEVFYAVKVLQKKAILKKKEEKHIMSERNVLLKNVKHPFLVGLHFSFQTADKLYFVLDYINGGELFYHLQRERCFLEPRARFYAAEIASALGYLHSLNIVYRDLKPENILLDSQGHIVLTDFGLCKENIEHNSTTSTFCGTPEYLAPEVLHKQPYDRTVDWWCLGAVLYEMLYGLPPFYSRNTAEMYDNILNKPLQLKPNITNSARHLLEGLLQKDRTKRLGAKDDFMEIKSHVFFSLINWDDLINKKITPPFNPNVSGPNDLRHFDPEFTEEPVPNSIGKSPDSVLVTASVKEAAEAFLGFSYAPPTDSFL
Chain of C-Met (P08581 25-1390): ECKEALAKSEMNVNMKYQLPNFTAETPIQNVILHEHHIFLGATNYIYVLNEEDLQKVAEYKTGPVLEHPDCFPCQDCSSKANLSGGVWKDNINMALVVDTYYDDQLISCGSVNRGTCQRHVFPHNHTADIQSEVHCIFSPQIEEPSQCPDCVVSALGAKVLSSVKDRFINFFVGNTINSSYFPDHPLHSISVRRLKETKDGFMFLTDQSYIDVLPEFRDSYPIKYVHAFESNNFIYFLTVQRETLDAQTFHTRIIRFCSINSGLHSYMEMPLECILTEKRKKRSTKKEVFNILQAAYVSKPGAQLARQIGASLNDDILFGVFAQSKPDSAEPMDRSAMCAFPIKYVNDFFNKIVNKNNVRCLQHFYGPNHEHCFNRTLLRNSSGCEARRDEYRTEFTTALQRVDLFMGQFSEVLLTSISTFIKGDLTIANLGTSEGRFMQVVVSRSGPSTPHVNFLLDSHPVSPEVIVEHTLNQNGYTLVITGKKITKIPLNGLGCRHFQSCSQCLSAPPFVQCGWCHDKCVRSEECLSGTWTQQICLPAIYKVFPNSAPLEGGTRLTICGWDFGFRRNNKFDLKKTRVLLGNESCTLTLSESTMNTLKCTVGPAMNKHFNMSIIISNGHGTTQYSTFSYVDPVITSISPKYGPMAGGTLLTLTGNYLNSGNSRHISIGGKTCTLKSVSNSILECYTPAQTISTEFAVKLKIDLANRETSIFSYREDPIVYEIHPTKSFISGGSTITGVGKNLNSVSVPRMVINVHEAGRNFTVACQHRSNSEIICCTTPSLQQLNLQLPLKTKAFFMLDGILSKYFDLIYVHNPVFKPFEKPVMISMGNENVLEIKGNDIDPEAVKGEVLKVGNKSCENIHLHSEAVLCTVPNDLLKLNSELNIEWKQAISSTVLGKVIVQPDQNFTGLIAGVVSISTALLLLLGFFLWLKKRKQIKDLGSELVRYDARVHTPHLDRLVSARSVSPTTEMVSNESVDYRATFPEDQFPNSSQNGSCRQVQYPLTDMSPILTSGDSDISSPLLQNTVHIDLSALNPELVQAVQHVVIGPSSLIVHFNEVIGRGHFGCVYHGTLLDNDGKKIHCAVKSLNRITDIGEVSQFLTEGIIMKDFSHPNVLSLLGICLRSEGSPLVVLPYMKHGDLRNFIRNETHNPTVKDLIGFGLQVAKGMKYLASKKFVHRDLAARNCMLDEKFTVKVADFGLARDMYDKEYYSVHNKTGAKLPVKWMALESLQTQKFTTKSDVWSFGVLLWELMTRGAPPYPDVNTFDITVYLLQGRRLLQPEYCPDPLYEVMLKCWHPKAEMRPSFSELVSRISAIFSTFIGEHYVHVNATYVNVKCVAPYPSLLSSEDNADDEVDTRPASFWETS
Chain of FLT4/VEGFR3 (P35916 25-1363): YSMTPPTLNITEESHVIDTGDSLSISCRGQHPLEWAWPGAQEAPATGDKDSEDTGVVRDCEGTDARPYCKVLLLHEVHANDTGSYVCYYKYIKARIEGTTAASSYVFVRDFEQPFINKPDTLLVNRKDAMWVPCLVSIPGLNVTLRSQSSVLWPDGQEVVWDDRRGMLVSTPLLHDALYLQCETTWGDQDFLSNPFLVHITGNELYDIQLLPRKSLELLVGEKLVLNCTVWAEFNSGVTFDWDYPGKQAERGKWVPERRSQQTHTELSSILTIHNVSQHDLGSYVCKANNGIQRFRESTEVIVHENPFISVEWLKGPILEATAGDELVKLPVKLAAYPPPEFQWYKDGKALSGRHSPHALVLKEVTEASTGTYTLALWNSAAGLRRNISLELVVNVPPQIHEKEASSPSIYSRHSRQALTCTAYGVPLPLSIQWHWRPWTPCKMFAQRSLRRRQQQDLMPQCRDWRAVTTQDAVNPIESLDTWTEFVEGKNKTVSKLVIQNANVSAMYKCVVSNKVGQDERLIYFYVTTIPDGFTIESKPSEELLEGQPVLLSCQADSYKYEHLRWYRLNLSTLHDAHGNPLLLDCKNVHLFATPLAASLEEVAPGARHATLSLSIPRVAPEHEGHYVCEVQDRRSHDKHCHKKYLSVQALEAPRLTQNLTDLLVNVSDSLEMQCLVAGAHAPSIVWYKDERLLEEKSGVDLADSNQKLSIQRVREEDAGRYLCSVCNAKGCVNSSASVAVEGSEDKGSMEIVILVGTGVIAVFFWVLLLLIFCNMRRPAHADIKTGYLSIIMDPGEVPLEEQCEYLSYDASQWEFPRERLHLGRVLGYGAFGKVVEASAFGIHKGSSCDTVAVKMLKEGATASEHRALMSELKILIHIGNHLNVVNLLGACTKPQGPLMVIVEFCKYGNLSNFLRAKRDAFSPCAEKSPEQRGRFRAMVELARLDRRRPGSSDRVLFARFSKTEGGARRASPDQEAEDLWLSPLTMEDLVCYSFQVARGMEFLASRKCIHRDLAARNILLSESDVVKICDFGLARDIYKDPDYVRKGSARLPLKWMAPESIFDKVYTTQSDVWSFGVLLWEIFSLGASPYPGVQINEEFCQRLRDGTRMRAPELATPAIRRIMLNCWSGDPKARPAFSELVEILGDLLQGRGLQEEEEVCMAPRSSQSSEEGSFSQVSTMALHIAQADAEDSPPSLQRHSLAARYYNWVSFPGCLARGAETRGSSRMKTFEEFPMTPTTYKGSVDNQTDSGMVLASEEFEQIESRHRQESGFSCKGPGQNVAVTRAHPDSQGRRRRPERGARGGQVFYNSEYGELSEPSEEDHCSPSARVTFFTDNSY
Chain of LCK (P06239 whole entry): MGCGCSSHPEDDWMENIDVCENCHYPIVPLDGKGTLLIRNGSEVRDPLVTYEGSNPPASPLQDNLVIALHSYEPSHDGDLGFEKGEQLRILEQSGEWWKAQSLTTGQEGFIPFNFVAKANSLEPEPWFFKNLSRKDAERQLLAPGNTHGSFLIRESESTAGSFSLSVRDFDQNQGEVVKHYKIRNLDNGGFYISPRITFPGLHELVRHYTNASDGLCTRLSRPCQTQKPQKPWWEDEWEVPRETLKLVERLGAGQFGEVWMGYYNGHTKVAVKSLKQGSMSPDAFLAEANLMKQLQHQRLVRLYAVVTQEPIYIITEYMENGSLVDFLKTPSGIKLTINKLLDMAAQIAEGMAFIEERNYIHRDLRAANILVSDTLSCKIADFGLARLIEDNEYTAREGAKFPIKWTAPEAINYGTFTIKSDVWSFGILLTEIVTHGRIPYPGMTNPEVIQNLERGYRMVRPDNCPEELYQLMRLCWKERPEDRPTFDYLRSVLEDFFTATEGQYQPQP

Row | SMILES | kinase inhibited more than 70% at 10 µM concentration (PKD/PRKD2) | kinase inhibited more than 70% at 10 µM concentration (SKG1) | kinase inhibited more than 70% at 10 µM concentration (Aurora A) | kinase inhibited more than 70% at 10 µM concentration (LCK) | kinase inhibited more than 70% at 10 µM concentration (KDR/VEGFR2 [1]) | kinase inhibited more than 70% at 10 µM concentration (PIM1) | kinase inhibited more than 70% at 10 µM concentration (FLT4/VEGFR3) | kinase inhibited more than 70% at 10 µM concentration (PKA) | kinase inhibited more than 70% at 10 µM concentration (KDR/VEGFR2 [2]) | kinase inhibited more than 70% at 10 µM concentration (C-Met)
1 | Cc1ccc(NC=C2C(=O)CCc3c2oc2c(Cl)c(Cl)c(O)cc32)cc1 [4b, 6,7-dichloro-1,4-dihydro-8-hydroxy-4-[(4-methylphenylamino)methylene]dibenzo[b,d]furan-3(2H)-one] | PKD/PRKD2 | SKG1 | Aurora A | LCK | KDR/VEGFR2 | – | – | – | – | –
2 | COc1ccc(/N=C/c2c(O)ccc3c2oc2cc(Cl)c(O)c(Cl)c23)cc1 [compound 5, (E)-1,3-dichloro-6-[(4-methoxyphenylimino)methyl]dibenzo[b,d]furan-2,7-diol] | – | – | – | – | – | PIM1 | FLT4/VEGFR3 | PKA | KDR/VEGFR2 | C-Met
